Test results as given in US20060264460A1 (Wyeth, priority 2005, published 2006).
pIC50: −log10 of the molar value.

The compounds below were run against T1, human Cot/Tpl2 kinase (Homo sapiens, UniProt P41279) (assay: Tpl2/Cot kinase assay: GST-MEK1 phosphorylation detected by ELISA (DELFIA Eu)). Conditions: 0.4 nM Tpl2, 35 nM GST-MEK1, 50 uM ATP, 1 h at 30° C.
T1 construct: human Cot/Tpl2 kinase construct encoding residues 30-398; 6His (N); made in house; host or cells: Sf9 insect cells, baculovirus system (BD Biosciences)
T1 sequence (P41279 30-398): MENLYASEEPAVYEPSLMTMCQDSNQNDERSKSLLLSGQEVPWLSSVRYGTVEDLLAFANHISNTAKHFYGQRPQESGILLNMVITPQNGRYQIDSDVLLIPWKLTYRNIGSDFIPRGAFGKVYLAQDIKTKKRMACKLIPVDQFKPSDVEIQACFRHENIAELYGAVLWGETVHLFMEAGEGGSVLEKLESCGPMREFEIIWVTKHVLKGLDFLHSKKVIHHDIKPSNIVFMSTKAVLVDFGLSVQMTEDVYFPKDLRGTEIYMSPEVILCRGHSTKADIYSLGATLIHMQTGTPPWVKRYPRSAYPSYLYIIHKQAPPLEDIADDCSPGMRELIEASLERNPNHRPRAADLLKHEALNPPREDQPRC
Assay type: biochemical
Description: Sf9 cells expressing the kinase were lysed in 50 mM NaPhosphate pH=8; 300 mM NaCl; 5 mM imidazole; 0.1 mM EGTA; 25 mM beta-glycerophosphate; 1% TX-100, 1% glycerol; 6 mM beta-mercaptoethanol and protease inhibitors. The lysate was clarified by centrifugation and was loaded onto a Ni-Sepharose column. The column was washed with 50 mM NaPhosphate pH=8; 300 mM NaCl; 15 mM imidazole; 1% glycerol; and 6 mM beta-mercaptoethanol. His-Tpl2 was eluted with 50 mM NaPhosphate pH=8; 300 mM NaCl; 250 mM imidazole; 1% glycerol; and 6 mM beta-mercaptoethanol. The eluted protein was further purified by size exclusion chromatography. Fractions corresponding to monomeric Tpl2 were then used in the assay.
Tpl2/Cot activity was directly assayed using GST-MEK1 as a substrate. GST-MEK1 phosphorylation on serine residues 217 and 221 was detected by ELISA. 0.4 nM Tpl2 was incubated with 35 nM GST-MEK1 in a kinase reaction buffer containing 20 mM MOPS pH=7.2; 50 uM ATP; 20 mM MgCl2; 1 mM DTT; 25 mM β-glycerophosphate; 5 mM EGTA; and 1 mM sodium orthovanadate for 1 h at 30° C. The compounds of the inventions solubilized in 100% DMSO were pre-diluted in assay buffer so that the final concentration of DMSO in the reaction was 1%. The kinase reaction was carried out in 100 ul volume on 96 well plates. The kinase reaction was then stopped with the addition of 100 mM EDTA. […] After a 1 hour incubation at room temperature, the detection plate was washed 4 times with TBST (TBS+0.05% Tween 20) and then incubated for another hour at room temperature with anti phospho-MEK1 antibody (Cell Signaling) 1:1000 in 10 mM MOPS 7.5; 150 mM NaCl; 0.05% Tween 20; 0.1% Gelatin; 0.02% NaN3; and 1% BSA. The detection plate was washed again and incubated for 30 min with DELFIA Europium (Eu) labeled goat anti-rabbit IgG (Perkin-Elmer), 1:4000 in the same buffer used for the primary incubation. After a final wash, Eu detection solution was added to each well and the Eu signal was measured in a Wallac Victor^2 Multilabel Counter. IC50 calculations were performed using the XLfit software package (IDBS, Guildford, UK).

Row | Compound | pIC50
1 | COc1cc(NCc2cccnc2)cc2c(Nc3ccc(C)c(O)c3)c(C#N)cnc12 [Example 32, 4-(3-Hydroxy-4-methyl-phenylamino)-8-methoxy-6-[(pyridin-3-ylmethyl)-amino]-quinoline-3-carbonitrile] | < 4.40
2 | Cc1cc(CNc2ccc3ncc(C#N)c(Nc4ccc(F)c(Cl)c4)c3c2)n(C)n1 [Example 33, 4-(3-Chloro-4-fluoro-phenylamino)-6-[(2,5-dimethyl-2H-pyrazol-3-ylmethyl)-amino]-quinoline-3-carbonitrile] | 6.70
3 | N#Cc1cc(CNc2ccc3ncc(C#N)c(Nc4ccc(F)c(Cl)c4)c3c2)ccc1OCC(=O)O [Example 34, (4-{[4-(3-Chloro-4-fluoro-phenylamino)-3-cyano-quinolin-6-ylamino]-methyl}-2-cyano-phenoxy)-acetic acid] | 6.59
4 | N#Cc1cnc2ccc(NCc3c[nH]nc3-c3cccs3)cc2c1Nc1ccc(F)c(Cl)c1 [Example 35, 4-(3-Chloro-4-fluoro-phenylamino)-6-[(3-thiophen-2-yl-1H-pyrazol-4-ylmethyl)-amino]-quinoline-3-carbonitrile] | 5.74
5 | N#Cc1cnc2ccc(NCc3ccccc3)cc2c1Nc1ccc(F)c(Cl)c1 [Example 36, 6-Benzylamino-4-(3-chloro-4-fluoro-phenylamino)-quinoline-3-carbonitrile] | 6.20
6 | N#Cc1cnc2ccc(NCc3cccnc3)cc2c1Nc1ccc(F)c(Cl)c1 [Example 37, 4-(3-Chloro-4-fluoro-phenylamino)-6-[(pyridin-3-ylmethyl)-amino]-quinoline-3-carbonitrile] | 6.39
7 | Cc1nn(C)c(N2CCOCC2)c1CNc1ccc2ncc(C#N)c(Nc3ccc(F)c(Cl)c3)c2c1 [Example 38, 4-(3-Chloro-4-fluoro-phenylamino)-6-[(1,3-dimethyl-5-morpholin-4-yl-1H-pyrazol-4-ylmethyl)-amino]-quinoline-3-carbonitrile] | 5.59
8 | N#Cc1cnc2ccc(NCc3cccc[n+]3[O-])cc2c1Nc1ccc(F)c(Cl)c1 [Example 39, 4-(3-Chloro-4-fluoro-phenylamino)-6-[(1-oxy-pyridin-2-ylmethyl)-amino]-quinoline-3-carbonitrile] | 7.96
9 | CC(C)(C)OC(=O)N1CCC[C@H]1CNc1ccc2ncc(C#N)c(Nc3ccc(F)c(Cl)c3)c2c1 [Example 40, 2-{[4-(3-Chloro-4-fluoro-phenylamino)-3-cyano-quinolin-6-ylamino]-methyl}-L-pyrrolidine-1-carboxylic acid tert-butyl ester] | 5.62
10 | CC(C)(C)OC(=O)COc1ccc(Br)cc1CNc1ccc2ncc(C#N)c(Nc3ccc(F)c(Cl)c3)c2c1 [Example 42] | 4.57
11 | N#Cc1cnc2ccc(NC[C@@H]3CCCN3)cc2c1Nc1ccc(F)c(Cl)c1 [Example 43, 4-(3-Chloro-4-fluoro-phenylamino)-6-[(L-pyrrolidin-2-ylmethyl)-amino]-quinoline-3-carbonitrile] | 4.82
12 | N#Cc1ccc(OCC(=O)O)c(CNc2ccc3ncc(C#N)c(Nc4ccc(F)c(Cl)c4)c3c2)c1 [Example 44, (2-{[4-(3-Chloro-4-fluoro-phenylamino)-3-cyano-quinolin-6-ylamino]-methyl}-4-cyano-phenoxy)-acetic acid] | 5.48
13 | CC(C)(C)OC(=O)COc1ccc(C#N)cc1CNc1ccc2ncc(C#N)c(Nc3ccc(F)c(Cl)c3)c2c1 [Example 45, (2-{[4-(3-Chloro-4-fluoro-phenylamino)-3-cyano-quinolin-6-ylamino]-methyl)-4-cyano-phenoxy)-acetic acid tert-butyl ester] | 4.83
14 | N#Cc1cnc2ccc(NC[C@H]3CCCN3)cc2c1Nc1ccc(F)c(Cl)c1 [Example 46, 4-(3-Chloro-4-fluoro-phenylamino)-6-[(D-pyrrolidin-2-ylmethyl)-amino]-quinoline-3-carbonitrile] | 4.52
15 | COc1cc(NCc2cnc[nH]2)cc2c(Nc3ccc(F)c(Cl)c3)c(C#N)cnc12 [Example 47, 4-(3-Chloro-4-fluoro-phenylamino)-6-[(3H-imidazol-4-ylmethyl)-amino]-8-methoxy-quinoline-3-carbonitrile] | 7.89
16 | COCCOc1ccc(Br)cc1CNc1ccc2ncc(C#N)c(Nc3ccc(F)c(Cl)c3)c2c1 [Example 48, 6-[5-Bromo-2-(2-methoxy-ethoxy)-benzylamino]-4-(3-chloro-4-fluoro-phenylamino)-quinoline-3-carbonitrile] | 5.82

Row | Compound | pIC50
17 | N#Cc1cnc2ccc(NCc3c[nH]c4c(F)c(F)c(F)c(F)c34)cc2c1Nc1ccc(F)c(Cl)c1 [Example 49, 4-(3-Chloro-4-fluoro-phenylamino)-6-[(4,5,6,7-tetrafluoro-1H-indol-3-ylmethyl)-amino]-quinoline-3-carbonitrile] | < 4.40
18 | CS(=O)(=O)c1ccc(CNc2ccc3ncc(C#N)c(Nc4ccc(F)c(Cl)c4)c3c2)cc1 [Example 50, 4-(3-Chloro-4-fluoro-phenylamino)-6-(4-methanesulfonyl-benzylamino)-quinoline-3-carbonitrile] | 6.70
19 | COc1ncccc1CNc1ccc2ncc(C#N)c(Nc3ccc(F)c(Cl)c3)c2c1 [Example 51, 4-(3-Chloro-4-fluoro-phenylamino)-6-[(2-methoxy-pyridin-3-ylmethyl)-amino]-quinoline-3-carbonitrile] | 6.96
20 | CC(C)(C)OC(=O)N1CCC(CNc2ccc3ncc(C#N)c(Nc4ccc(F)c(Cl)c4)c3c2)C1 (stereo not shown) [Example 52, 3-{[4-(3-Chloro-4-fluoro-phenylamino)-3-cyano-quinolin-6-ylamino]-methyl}-pyrrolidine-1-carboxylic acid tert-butyl ester] | 5.82
21 | N#Cc1cnc2ccc(NCc3cccc(O)c3)cc2c1Nc1ccc(F)c(Cl)c1 [Example 53, 4-(3-Chloro-4-fluoro-phenylamino)-6-(3-hydroxy-benzylamino)-quinoline-3-carbonitrile] | 6.27
22 | N#Cc1cnc2ccc(NCc3ccccc3O)cc2c1Nc1ccc(F)c(Cl)c1 [Example 55, 4-(3-Chloro-4-fluoro-phenylamino)-6-(2-hydroxy-benzylamino)-quinoline-3-carbonitrile] | 5.74
23 | CN(C)c1ccc(CNc2ccc3ncc(C#N)c(Nc4ccc(F)c(Cl)c4)c3c2)c(Br)c1 [Example 56, 6-(2-Bromo-4-dimethylamino-benzylamino)-4-(3-chloro-4-fluoro-phenylamino)-quinoline-3-carbonitrile] | 5.47
24 | COCCOc1ccc(C#N)cc1CNc1ccc2ncc(C#N)c(Nc3ccc(F)c(Cl)c3)c2c1 [Example 57, 4-(3-Chloro-4-fluoro-phenylamino)-6-[5-cyano-2-(2-methoxy-ethoxy)-benzylamino]-quinoline-3-carbonitrile] | 6.19
25 | CCOCCOc1ccc(Br)c(CNc2ccc3ncc(C#N)c(Nc4ccc(F)c(Cl)c4)c3c2)c1 [Example 58, 6-[2-Bromo-5-(2-ethoxy-ethoxy)-benzylamino]-4-(3-chloro-4-fluoro-phenylamino)-quinoline-3-carbonitrile] | 5.96
26 | CCOCCOc1ccc2c(c1)CN(c1ccc3ncc(C#N)c(Nc4ccc(F)c(Cl)c4)c3c1)C2=N [Example 60] | < 4.40
27 | N#Cc1cnc2ccc(NCC3CCOCC3)cc2c1Nc1ccc(F)c(Cl)c1 [Example 61, 4-(3-Chloro-4-fluoro-phenylamino)-6-[(tetrahydro-pyran-4-ylmethyl)-amino]-quinoline-3-carbonitrile] | 6.09
28 | N#Cc1cnc2ccc(NCC3CCNC3)cc2c1Nc1ccc(F)c(Cl)c1 (stereo not shown) [Example 62, 4-(3-Chloro-4-fluoro-phenylamino)-6-[(pyrrolidin-3-ylmethyl)-amino]-quinoline-3-carbonitrile] | < 4.40
29 | CC(C)(C)OC(=O)N1CCCC(CNc2ccc3ncc(C#N)c(Nc4ccc(F)c(Cl)c4)c3c2)C1 (stereo not shown) [Example 63, 3-{[4-(3-Chloro-4-fluoro-phenylamino)-3-cyano-quinolin-6-ylamino]-methyl}-piperidine-1-carboxylic acid tert-butyl ester] | < 4.40
30 | N#Cc1cnc2ccc(NCC3CCCNC3)cc2c1Nc1ccc(F)c(Cl)c1 (stereo not shown) [Example 64, 4-(3-Chloro-4-fluoro-phenylamino)-6-[(piperidin-3-ylmethyl)-amino]-quinoline-3-carbonitrile] | < 4.40
31 | N#Cc1cnc2ccc(NCc3ccccc3)cc2c1Nc1ccc(N2CCOCC2)cc1 [Example 66, 6-(benzylamino)-4-(4-morpholinophenylamino)quinoline-3-carbonitrile] | < 4.40
